Measurements published in patent publication US9783519B2, “Palladium/silver co-catalyzed tandem reactions synthesis of phenylacetophenone derivatives by oxabenzonorbornadienes with terminal alkynes and their anti-tumor or anti-cancer activities” (Hong Kong Baptist University, priority 2015, dated 2017).
Like-named read-outs stand apart in the source and are kept apart here.

How the values were obtained:
[1] = tested on: DLD-1 (human colorectal carcinoma cell line); assay: MTT cytotoxicity assay, DLD-1; assay type: cell-based; settings: 48 hrs treatment
Method: (§1) Cytotoxic activities of all compounds were evaluated by MTT assay using KYSE-150 (human oesophagus carcinoma), MKN-45 (human gastric aednocarcinoma), DLD-1 (human colorectal carcinoma cell line), Hep G2 (human hepatocellular carcinoma). […] 3ag, 3al, 3an, 3ea and 3ha also have the same inhibitory effect on different cell lines with IC50 value lower than 10 μM. Thus, except 3ac, 3ad, 3ae, 3ah, and 3ab, the other compounds all exert definitely anti-cancer effect.
(§2) In this study, all compounds were dissolved in dimethyl sulfoxide (DMSO) to make stock solutions and further diluted in culture medium for this experiment. Human cancer cell lines, including one gastric adenocarcinoma cell line (MKN-45), one colon carcinoma cell line (DLD-1), one esophageal carcinoma cell line (KYSE-150) and one hepatocellular carcinoma cell line (HepG2) were cultured in RPMI 1640 or DMEM medium, containing 10% fetal bovine serum and 1% antibiotics (Penicillin and strep). The cell lines were cultured at 37° C. in a humidified environment containing 5% CO2. To determine the effects of the compounds on cell viability, a standard colorimetric 3-(4,5-dimethylthiazol-2-yl)-2,5-diphenyltetrazolium bromide (MTT) assay was used to test the cell number. Cells were seeded in a 96-well plate (4×10^3 cells/well) and allowed to attach overnight. After the recovery, cells were treated with 1.56, 3.125, 6.25, 12.5, 25, 50 μM of compounds in culture medium for 48 hrs. Then, 20 μL of MTT (5 mg/mL stock in PBS) per well was added into the medium (200 μL) and incubated for 4 hrs at 37° C. Finally, the culture medium was removed and 200 μL of DMSO were added to dissolve the purple formazan crystals. Absorbance of the solution was measured using microplate reader spectrophotometer (Bio-Rad Laboratories, Inc., Hercules, Calif.) at a wavelength of 570 nm.

KYSE-150 cells [2] = assay: Wound healing assay; assay type: cell-based, human; settings: 48 h
Method: Original magnification, 5×.
Further, wound-healing assay was used to test whether those novel compounds could affect cell motility.
A wound-healing assay was performed as follows: cells were seeded in 12 wells plate at 50% confluence in completed medium. After 24 hrs seeding, the monolayer was wounded by scoring with a sterile plastic tip (1 mL), then washed several times with medium to remove cell debris and then incubated in conditioned medium in the absence or presence of tested compounds for various periods of time up to 48 h. […] Cell migration into the wound surface was monitored by Olympus IX71 microscopy and digitally photographed.

[3] = tested on: Hep G2 (human hepatocellular carcinoma); assay: MTT cytotoxicity assay, Hep G2; assay type: cell-based; settings: HepG2, 48 hrs treatment
Method: as §1, §2

KYSE-150 cells [4] = assay: Wound healing assay; assay type: cell-based, human
[5] = tested on: KYSE-150 (human oesophagus carcinoma); assay: MTT cytotoxicity assay, KYSE-150; assay type: cell-based; settings: 48 hrs treatment
Method: as §1, §2

[6] = tested on: MKN-45 (human gastric aednocarcinoma); assay: MTT cytotoxicity assay, MKN-45; assay type: cell-based; settings: 48 hrs treatment
Method: as §1, §2

[7] = tested on: KYSE-150, MKN-45, DLD-1, Hep G2; assay: MTT cytotoxicity assay, summary over the test cell lines; assay type: cell-based; settings: Homo sapiens, summary of Table 6
Method: as §1, §2

[8] = all test cell lines, read-out: IC50, cell growth-inhibiting effect against all test cell lines (below or near)
[9] = on different (not all) cell lines, read-out: IC50, inhibitory effect on different cell lines

Row | SMILES | IC50 [1] [µM] | cell migration into the wound (KYSE-150 cells [2]; 10 μM) | IC50 [3] [µM] | melting point [°C] | viability of KYSE-150 cells compared to controls (KYSE-150 cells [4]; 10 μM) | IC50 [5] [µM] | IC50 [6] [µM] | IC50 [7, 8] [µM] | IC50 [7, 9] [µM] | cell migration into the wound (KYSE-150 cells [2]; 5 μM) | viability of KYSE-150 cells compared to controls (KYSE-150 cells [4]; 5 μM)
1 | O=C(Cc1ccc2ccccc2c1)c1ccccc1 [Compound 3aa, 2-(naphthalen-2-yl)-1-phenylethanone] | 12.4 | did not migrate into the wound | 20.8 | 122 to 124 | did not alter the viability | 10.9 | 15.6 |  |  |  | 
2 | COc1ccc(C(=O)Cc2ccc3ccccc3c2)cc1 [Compound 3ab, 1-(4-methoxyphenyl)-2-(naphthalen-2-yl) ethanone] | 7.89 | did not migrate into the wound | 7.63 | 125 to 127 | did not alter the viability | 5.19 | 10.1 | ~10 |  |  | 
3 | COc1ccccc1C(=O)Cc1ccc2ccccc2c1 [Compound 3ac, 1-(2-methoxyphenyl)-2-(naphthalen-2-yl) ethanone] | > 50 |  | > 50 | 100 to 102 |  | > 50 | > 50 |  |  |  | 
4 | COc1cccc(C(=O)Cc2ccc3ccccc3c2)c1 [Compound 3ad, 1-(3-methoxyphenyl)-2-(naphthalen-2-yl) ethanone] | > 50 |  | > 50 | 102 to 103 |  | > 50 | > 50 |  |  |  | 
5 | COc1cc(OC)cc(C(=O)Cc2ccc3ccccc3c2)c1 [Compound 3ae, 1-(3,5-dimethoxyphenyl)-2-(naphthalen-2-yl) ethanone] | > 50 |  | 42.8 | 70 to 71 |  | > 50 | > 50 |  |  |  | 
6 | O=C(Cc1ccc2ccccc2c1)c1ccc(F)cc1 [Compound 3af, 1-(4-fluorophenyl)-2-(naphthalen-2-yl) ethanone] | 5.27 |  | 4.23 | 145 to 147 |  | 2.56 | 4.04 | ~10 |  |  | 
7 | O=C(Cc1ccc2ccccc2c1)c1ccc(Oc2ccccc2)cc1 [Compound 3ag, 2-(naphthalen-2-yl)-1-(4-phenoxyphenyl) ethanone] | 4.95 |  | 4.84 | 139 to 141 |  | 1.19 | > 50 |  | < 10 |  | 
8 | O=C(Cc1ccc2ccccc2c1)c1ccc(OC(F)(F)F)cc1 [Compound 3ah, 2-(naphthalen-2-yl)-1-(4-(trifluoromethoxy)phenyl) ethanone] | > 50 |  | > 50 | 153 to 154 |  | > 50 | > 50 |  |  |  | 
9 | O=C(Cc1ccc2ccccc2c1)c1ccc(Br)cc1 [Compound 3ai, 1-(4-bromophenyl)-2-(naphthalen-2-yl) ethanone] | 3.3 |  | 1.32 | 157 to 159 |  | 2.02 | 4.45 | ~10 |  |  | 
10 | Cc1ccc(C(=O)Cc2ccc3ccccc3c2)cc1 [Compound 3aj, 2-(naphthalen-2-yl)-1-(p-tolyl) ethanone] | > 50 |  | > 50 | 144 to 146 |  | 18.4 | 12 |  |  |  | 
11 | O=C(Cc1ccc2ccccc2c1)c1ccc(CO)cc1 [Compound 3ak, 1-(4-(hydroxymethyl)phenyl)-2-(naphthalen-2-yl) ethanone] | 48.2 |  | > 50 | 97 to 98 |  | 31.3 | > 50 |  |  |  | 
12 | O=C(Cc1ccc2ccccc2c1)c1ccc(C(F)(F)F)cc1 [Compound 3al, 2-(naphthalen-2-yl)-1-(4-(trifluoromethyl)phenyl) ethanone] | 37.4 |  | 29.9 | 179 to 181 |  | 4.75 | > 50 |  | < 10 |  | 
13 | N#Cc1ccc(C(=O)Cc2ccc3ccccc3c2)cc1 [Compound 3am, 4-(2-(naphthalen-2-yl)acetyl) benzonitrile] | > 50 |  | > 50 | 152 to 154 |  | 33.5 | > 50 |  |  |  | 
14 | [2H]C(C(=O)c1ccccc1)c1ccc2ccccc2c1 (stereo not shown) [Compound 3an, 2-(naphthalen-2-yl)-1-phenylethanone-2-D] | > 50 | did not migrate into the wound | 22 | 129 to 130 | did not alter the viability | 7.43 | 43.1 |  | < 10 |  | 
15 | COc1ccc(OC)c2cc(CC(=O)c3ccccc3)ccc12 [Compound 3ba, 2-(5,8-dimethoxynaphthalen-2-yl)-1-phenylethanone] | > 50 |  | > 50 | 145 to 146 |  | > 50 | > 50 |  |  |  | 
16 | Cc1ccc(C)c2cc(CC(=O)c3ccccc3)ccc12 [Compound 3ca, 2-(5,8-dimethylnaphthalen-2-yl)-1-phenylethanone] | > 50 |  | > 50 | 123 to 124 |  | 19.2 | > 50 |  |  |  | 
17 | Cc1cc2ccc(CC(=O)c3ccccc3)cc2cc1C [Compound 3da, 2-(6,7-dimethylnaphthalen-2-yl)-1-phenylethanone] | 0.78 |  | > 50 | 142 to 144 |  | 7.69 | 3.71 |  |  | did not migrate into the wound | did not alter the viability
18 | C(#Cc1ccc2cc3c(cc2c1)OCCO3)c1ccccc1 [Compound 3ga, 7-(phenylethynyl)-2,3-dihydronaphtho [2,3-b][1,4] dioxine] | 19.7 | did not migrate into the wound | 45.2 | 130 to 132 | did not alter the viability | 24.7 | 35.1 |  |  |  | 
19 | C(#Cc1ccc2cc3c(cc2c1)OCO3)c1ccccc1 [Compound 3ha, 6-(phenylethynyl) naphtho [2,3-d][1,3] dioxole] | 0.55 |  | 0.65 | 154 to 155 |  | 3.52 | 20.8 |  | < 10 |  | 
